In patent US5856509A, “Derivatives of imidazole, their preparation process, the new intermediates obtained, their use as medicaments and the pharmaceutical compositions containing them” (Roussel Uclaf, priority 1994, dated 1999) one finds IC50 data, which are given here for three molecules.

One assay concerns the target T1, B receptor of endothelin (Rattus norvegicus, UniProt P21451).
T1 construct: A membrane preparation is produced from the posterior cortex plus cerebellum of a rat; from tissue; host or cells: rat posterior cortex plus cerebellum, membrane preparation
T1 sequence (P21451 27-442): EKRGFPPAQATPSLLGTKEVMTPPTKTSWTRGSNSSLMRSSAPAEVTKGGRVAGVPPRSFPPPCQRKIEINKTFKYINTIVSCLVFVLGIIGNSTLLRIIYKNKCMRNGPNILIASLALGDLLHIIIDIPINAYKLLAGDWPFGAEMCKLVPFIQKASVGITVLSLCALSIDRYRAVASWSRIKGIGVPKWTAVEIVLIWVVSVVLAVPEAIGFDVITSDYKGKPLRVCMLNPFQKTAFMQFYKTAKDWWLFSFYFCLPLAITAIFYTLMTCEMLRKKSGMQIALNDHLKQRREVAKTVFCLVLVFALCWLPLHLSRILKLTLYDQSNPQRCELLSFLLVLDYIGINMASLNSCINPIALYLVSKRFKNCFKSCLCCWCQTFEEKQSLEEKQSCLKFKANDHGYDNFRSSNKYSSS
As to the kind of experiment: Study of the activity on the B receptor of endothelin: displacement of 125I Endothelin on membrane preparation of rat posterior cortex plus cerebellum. Format: binding. Particulars: Table I, rat posterior cortex plus cerebellum membranes, 25° C., 60 minutes, read-out: B receptor of endothelin IC50 in nanomoles. As to the method: STUDY OF THE ACTIVITY ON THE B RECEPTOR OF ENDOTHELIN
A membrane preparation is produced from the posterior cortex plus cerebellum of a rat. The tissue is ground up in a POLYTRON in a 50 mM Tris buffer pH=7.4.
After 30 minutes at 25° C. (W.B.) the homogenate is centrifuged at 30000 g for 15 minutes (2 centrifugations with intermediate take-up in the Tris buffer pH. 7.4).
(§1) The pellets are resuspended in an incubation buffer (25 mM Tris, 5 microg/ml pepstatin A, 3 microg/ml aprotinin, 0.1 mM PMSF, 3 mM EDTA, 1 mM EGTA pH 7.4).
(§2) 2 ml aliquots are distributed into hemolysis tubes and ^125 I Endothelin (approximately 50000 dpm/tube) and the product to be studied are added. (The product is first tested at 3×10^-5 M three times). When the tested product displaces more than 50% of the radioactivity specifically bound to the receptor, it is tested again according to a range of 7 concentrations so as to determine the concentration which inhibits the radioactivity specifically bound to the receptor by 50%. In this way the 50% inhibitory concentration is determined.
(§3) The non-specific bond is determined by the addition of 10^-6 M endothelin (three times). After incubation at 25° C. for 60 minutes, putting back in the water bath at 0° C., for 5 minutes, filtering under reduced pressure, rinsing with Tris buffer 7.4, the radioactivity is counted in the presence of scintillating Triton.
(§4) The result is expressed directly as the 50% inhibitory concentration (IC50), that is to say as the concentration of product studied expressed in nM, necessary to displace 50% of the specific radioactivity bound to the receptor studied.

Another assay deals with T2, A receptor of endothelin (Rattus norvegicus, UniProt P26684).
T2 construct: A membrane preparation is produced from the heart (ventricles) of a rat; from tissue; host or cells: rat heart (ventricles), membrane preparation
T2 sequence (P26684 21-426): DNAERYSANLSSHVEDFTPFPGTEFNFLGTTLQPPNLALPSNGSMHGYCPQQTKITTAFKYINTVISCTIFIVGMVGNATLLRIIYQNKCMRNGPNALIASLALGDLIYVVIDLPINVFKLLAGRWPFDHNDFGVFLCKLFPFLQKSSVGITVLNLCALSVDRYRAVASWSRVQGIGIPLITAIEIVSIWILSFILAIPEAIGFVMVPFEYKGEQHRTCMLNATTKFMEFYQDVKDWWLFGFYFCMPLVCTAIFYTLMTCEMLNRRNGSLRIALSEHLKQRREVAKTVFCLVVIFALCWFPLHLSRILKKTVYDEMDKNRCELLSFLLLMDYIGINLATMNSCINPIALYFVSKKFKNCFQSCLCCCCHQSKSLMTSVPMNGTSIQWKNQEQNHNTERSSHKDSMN
As to the kind of experiment: Study of the activity on the A receptor of endothelin: displacement of 125I Endothelin on membrane preparation of rat heart (ventricles). It counts as binding. Particulars: Table II, rat heart (ventricles) membranes, 25° C., 60 minutes, read-out: B receptor of endothelin IC50 in nanomoles. As to the method: STUDY OF THE ACTIVITY ON THE A RECEPTOR OF ENDOTHELIN
A membrane preparation is produced from the heart (ventricles) of a rat. The tissue is ground up in a POLYTRON in a 50 mM Tris buffer pH=7.4.
After 30 minutes at 25° C. (W.B.) the homogenate is centrifuged at 30000 g for 15 minutes (2 centrifugations with intermediate take up in the Tris buffer pH. 7.4).
as §1, §2, §3, §4

In the case of `COc1ccc(Sc2nc(Sc3ccc(OC)cc3)n(Cc3cc4c(cc3Cl)OCO4)c2C(=O)O)cc1` [Example 18, 1-((6-chloro-1,3-benzodioxol-5-yl)methyl)-2,4-bis(4-(methoxyphenyl)thio)-1H-imidazole-5-carboxylic acid], the IC50 on B receptor of endothelin was 88 nM; at A receptor of endothelin, 230 nM.
For `COc1ccc(CSc2nc(Sc3ccccc3)n(Cc3cc4c(cc3Cl)OCO4)c2C(=O)O)cc1` [Example 10, 1-((6-chloro-1,3-benzodioxol-5-yl)methyl)-4-(((4-methoxyphenyl)methyl)thio)-2-(phenylthio)-1H-imidazole-5-carboxylic acid], the IC50 was 420 nM at B receptor of endothelin and 167 nM at A receptor of endothelin.
For the molecule `COc1ccc(Sc2nc(Sc3ccccc3)n(Cc3cc4c(cc3Cl)OCO4)c2C(=O)O)cc1` [Example 15], the values for the IC50 on B receptor of endothelin and on A receptor of endothelin were 110 nM and 170 nM, respectively.
